Results: patent US20060142271A1, “Novel lapacho compounds and methods of use thereof” (priority 2002, published 2006)
Like-named read-outs stand apart in the source and are kept apart here.

How the values were obtained:
[1] = system: HaCaT cells; assay: HaCaT keratinocyte proliferation assay (cell counting); assay type: cell-based, human; conditions: for IC50: Homo sapiens; for inhibition of HaCaT cell proliferation (in words): HaCaT cells
Method: Anthralin, an antipsoriatic drug, was used as a positive control. Antiproliferative activity was measured directly by counting the dispersed cells under a phase-contrast microscope.
HaCaT keratinocyte proliferation assay and LDH release were described previously in full detail (Muller et al. J. Med. Chem. 39: 3132-3138, 1996; Müller et al. J. Med. Chem. 37: 1660-1669, 1994). For the cancer cell line studies, exponentially growing cells were seeded at 1,000 cells per well in six-well plates and allowed to attach for 24 h. Compounds of the invention or β-lapachone, solubflized in DMSO, were added to the wells in micromolar concentrations. Control wells were treated with equivalent volumes of DMSO. After 4 h the supernatant was removed and fresh medium was added. Cultures were observed daily for 10-15 days and then were fixed and stained. Colonies of greater than 30 cells were scored as survivors. […]

[2] = system: HaCaT cells; assay type: cell-based, human; conditions: for LDH (mU): human, 2 μM
Method: (§1) HaCaT keratinocyte proliferation assay and LDH release were described previously in full detail (Muller et al. J. Med. Chem. 39: 3132-3138, 1996; Müller et al. J. Med. Chem. 37: 1660-1669, 1994). For the cancer cell line studies, exponentially growing cells were seeded at 1,000 cells per well in six-well plates and allowed to attach for 24 h. Compounds of the invention or β-lapachone, solubflized in DMSO, were added to the wells in micromolar concentrations. Control wells were treated with equivalent volumes of DMSO. After 4 h the supernatant was removed and fresh medium was added. Cultures were observed daily for 10-15 days and then were fixed and stained. Colonies of greater than 30 cells were scored as survivors.
The cytotoxicity of naphthoquinones has been thought to result, at least in part, from reactive oxygen species, generated during redox cycling between the […] and reduction products (Munday, R., Free Radic. Biol. Med., 22, 689-695, 1997), which cause peroxidative damage to membrane lipids. To assess the correlation of keratinocyte growth inhibition with membrane damage, the release of lactate dehydrogenase from the treated cells was also quantitated.

[3] = system: colon cancer cell line DLD1; assay: Cancer cell line colony survival assay, DLD1; assay type: cell-based, human; conditions: Homo sapiens
Method: as §1

[4] = system: colon cancer cell line SW480; assay: Cancer cell line colony survival assay, SW480; assay type: cell-based, human; conditions: Homo sapiens
Method: as §1

[5] = system: breast cancer cell line MCF7; assay: Cancer cell line colony survival assay, MCF7; assay type: cell-based, human; conditions: Homo sapiens
Method: as §1

[6] = system: human keratinocyte cell line HaCaT; conditions: Müller et al., J. Nat. Prod. 62 (1999); cited from earlier work
[7] = system: human cancer cell lines; conditions: wide spectrum of human cancer cell lines; read-out: antineoplastic activity against human cancer cell lines (IC50); cited from earlier work
[8] = system: normal fresh or proliferating human PBMC; conditions: cited from earlier work
[9] = system: cancer cell lines and normal cells; conditions: Li et al., PNAS 2003; cited from earlier work
[10] = antiproliferative activity against HaCaT cells, N = 3, read-out: AA in HaCaT Cells IC50
[11] = DLD-1, colon cancer cell line DLD1, 4 h exposure, colonies after 10-15 days, read-out: AA in Cancer Cell Lines IC50 (μM) DLD1
[12] = colon cancer cell line SW480, 4 h exposure, colonies after 10-15 days, read-out: AA in Cancer Cell Lines IC50 (μM) SW480
[13] = breast cancer cell line MCF7, 4 h exposure, colonies after 10-15 days, read-out: AA in Cancer Cell Lines IC50 (μM) MCF7
[14] = HaCaT, read-out: AA in HaCaT Cells IC50 (μM)

| LDH (mU) [2] [mU] | melting point | SMILES | IC50 [1, 10] [µM] | IC50 [3, 11] [µM] | IC50 [4, 12] [µM] | IC50 [5, 13] [µM] | inhibition of HaCaT cell proliferation (in words) [1] | LDH release compared to vehicle control (in words) [2] | inhibition of keratinocyte growth in HaCaT model (in words) [6] | IC50 [1, 14] [µM] | IC50 ([3]; DLD-1, read-out: AA in Cancer Cell Lines IC50 (μM) DLD1) [µM] | IC50 ([4]; SW480, read-out: AA in Cancer Cell Lines IC50 (μM) SW480) [µM] | IC50 ([5]; MCF7, read-out: AA in Cancer Cell Lines IC50 (μM) MCF7) [µM] | IC50 [7] [µM] | cytotoxic effects on normal human PBMC [8] | induction of apoptosis in cancer versus normal cells [9] |
| --- | --- | --- | --- | --- | --- | --- | --- | --- | --- | --- | --- | --- | --- | --- | --- | --- |
| 134 | 261 to 262 °C | CC(=O)c1cc2c(s1)C(=O)c1ccccc1C2=O [Compound 63b, 2-Acetyl-naphtho[2,3-b]thiophene-4,9-dione] | 0.3 | 1 | 4 | ≤ 1 | – | – | – | – | – | – | – | – | – | – |
| 122 | 164 to 165 °C | O=C(c1ccccc1)c1cc2cc3ccccc3cc2s1 [Compound 64a, Naphtho[2,3-b]thiophen-2-yl-phenylmethanone] | 0.3 | 1.5 | ≤ 1 | ≤ 1 | – | – | – | – | – | – | – | – | – | – |
| – | 175 to 176 °C | COc1ccc(C(=O)c2cc3cc4ccccc4cc3s2)cc1OC [Compound 65a, (3,4-Dimethoxyphenyl)-naphtho[2,3-b]thiophen-2-yl-methanone] | > 5 | > 32 | > 32 | > 32 | – | – | – | – | – | – | – | – | – | – |
| 137 | 212 to 218 °C | COc1ccc(C(=O)c2cc3c(s2)C(=O)c2ccccc2C3=O)cc1OC [Compound 65b, 2-(3,4-Dimethoxybenzoyl)-naphtho[2,3-b]thiophene-4,9-dione] | 0.8 | 2.6 | 10 | ≤ 1 | inhibited cell proliferation at concentrations comparable to β-lapachone and the furan analogs | without significant elevation of LDH release over the vehicle control | – | – | – | – | – | – | – | – |
| 118 | 272 to 274 °C (dec.) | O=C(c1ccc(O)c(O)c1)c1cc2c(s1)C(=O)c1ccccc1C2=O [Compound 65c, 2-(3,4-Dihydroxybenzoyl)-naphtho[2,3-b]thiophene-4,9-dione] | 1.5 | 11 | 20 | 8 | inhibited cell proliferation at concentrations comparable to β-lapachone and the furan analogs | without significant elevation of LDH release over the vehicle control | – | – | – | – | – | – | – | – |
| – | 251 to 252 °C | O=C(c1ccc([N+](=O)[O-])cc1)c1cc2cc3ccccc3cc2s1 [Compound 66a, Naphtho[2,3-b]thiophen-2-yl-(4-nitrophenyl)methanone] | > 5 | > 32 | > 32 | > 32 | – | – | – | – | – | – | – | – | – | – |
| 142 | 140 to 142 °C | O=C(c1ccccc1)c1cc2cc3ccccc3cc2o1 [Compound 74a, Naphtho[2,3-b]furan-2-yl-phenylmethanone] | 1.9 | 7.6 | 12 | ≤ 1 | – | – | – | – | – | – | – | – | – | – |

The next lines start with the compound.

| SMILES | LDH (mU) [2] [mU] | melting point | IC50 [1, 10] [µM] | IC50 [3, 11] [µM] | IC50 [4, 12] [µM] | IC50 [5, 13] [µM] | inhibition of HaCaT cell proliferation (in words) [1] | LDH release compared to vehicle control (in words) [2] | inhibition of keratinocyte growth in HaCaT model (in words) [6] | IC50 [1, 14] [µM] | IC50 ([3]; DLD-1, read-out: AA in Cancer Cell Lines IC50 (μM) DLD1) [µM] | IC50 ([4]; SW480, read-out: AA in Cancer Cell Lines IC50 (μM) SW480) [µM] | IC50 ([5]; MCF7, read-out: AA in Cancer Cell Lines IC50 (μM) MCF7) [µM] | IC50 [7] [µM] | cytotoxic effects on normal human PBMC [8] | induction of apoptosis in cancer versus normal cells [9] |
| --- | --- | --- | --- | --- | --- | --- | --- | --- | --- | --- | --- | --- | --- | --- | --- | --- |
| O=C(c1ccccc1)c1cc2c(s1)C(=O)c1ccccc1C2=O [Compound 64b, 2-Benzoyl-naphtho[2,3-b]thiophene-4,9-dione] | – | 158 to 159 °C | 1.7 | 1.3 | 4 | ≤ 1 | inhibited cell proliferation at concentrations comparable to β-lapachone and the furan analogs | without significant elevation of LDH release over the vehicle control | – | – | – | – | – | – | – | – |
| CC(C)=CCC1=C(O)C(=O)c2ccccc2C1=O [lapachol] | – | – | – | – | – | – | – | – | relatively inactive | – | – | – | – | – | – | – |
| CC1(C)CCC2=C(O1)C(=O)c1ccccc1C2=O [α-lapachone, reference compound] | – | – | – | – | – | – | – | – | relatively inactive | 10 | – | – | – | – | – | – |
| CC1(C)CCC2=C(O1)c1ccccc1C(=O)C2=O [β-lapachone, reference compound] | 329 | – | – | – | – | – | inhibited cell proliferation | significant LDH release as compared to vehicle | inhibition of keratinocyte growth comparable to the antipsoriatic drug anthralin | 0.7 | 4 | 4 | ≤ 1 | 1 to 10 | No cytotoxic effects were observed | induces apoptosis only in cancer cell lines and not in normal cells |
